The values below come from PMC8589634 (The Journal of Prevention of Alzheimer's Disease, 2021).

Data set [1] has as its system patients with mild-to-moderate AD. Nature of the data set: Open-label study of simufilam, interim analysis. Type of data set: in vivo, human.
In a further data set the test system is AD patients. Conditions: cited from earlier work.
Data set [2] concerns patients with MCI or PD. Nature of the data set: Safety and tolerability of single doses of clenbuterol. It counts as in vivo, human.
In data set [3] the test system is healthy volunteers. Nature of the data set: Brain spectroscopy after NR supplementation. It counts as in vivo, human. Conditions: two weeks of NR supplementation.
The subject of a further data set is AD and PD patients. Nature of the data set: Posiphen phase 2a studies in AD and PD. Type of data set: in vivo, human.
For data set [4], the system named is patients with agitation in Alzheimer’s dementia. Nature of the data set: Brexpiprazole phase 3 pooled CGI-S and CMAI responder analysis. Type of data set: in vivo, human.
For data set [5] the test system is unchanged. Nature of the data set: Brexpiprazole phase 3 studies, post-hoc CMAI-IPA. Type of data set: in vivo, human.
Data set [6] relates to patients with PD psychosis and PD dementia. Nature of the data set: HARMONY trial, post hoc PD dementia subgroup. It counts as in vivo, human.
The subject of data set [7] is patients with mild or mild/moderate AD. Nature of the data set: LMTM Phase 3 exposure groups against historical placebo meta-analysis. Conditions: 8mg/day. Type of data set: in vivo, human.
Another data set has as its system PSEN1-AD neurons. Conditions: screen of existing drug library; earlier work of the authors; cited from earlier work.
Data set [8] has as its system patients with MCI or PD. Nature of the data set: Cerebral blood flow by pCASL MRI after clenbuterol. Type of data set: in vivo, human.
Data set [9] deals with subjects with moderate AD. Nature of the data set: Masupirdine phase-2 trial, NPI-12 psychosis subgroup analysis. It counts as in vivo, human.
Data set [10] relates to subjects with moderate AD. Nature of the data set: Masupirdine phase-2 trial, NPI-12 agitation/aggression subgroup analysis. Type of data set: in vivo, human.
Data set [11] has as its system patients with AD and agitation/aggression. Nature of the data set: Lit-AD randomized trial of low-dose lithium. It counts as in vivo, human.
Data set [12] concerns healthy volunteers.
The next data set concerns GRN mutation carriers. To be noted: repeat administration; earlier Phase 2 study; cited from earlier work.
The mark [13] stands for this setting: first dose 80µg, 3 hours post-dose, n=8.
Where [14] appears, read: second visit, 1mg nadolol 2.5 hours before clenbuterol, n=4.
The mark [15] stands for this setting: second visit, clenbuterol monotherapy, n=4.
Setting [16] is: 80µg single dose, patients affected.

For the molecule `CN1CCC2(CC1)NCC(=O)N2Cc1ccccc1` [simufilam], the “ADAS-Cog11 mean change from baseline to Month 12” value in data set [1] (100 mg twice-daily oral, first 50 subjects, open-label) is recorded as −3.23 ± 6.25 points. The safety and tolerability result in data set [1] (12 months) was “safe and well-tolerated”. Further, the “subjects with no neuropsychiatric symptoms (NPI)” value in data set [1] (12 months, baseline 34%) is reported as “over 50%”. The “ADAS-Cog11 score, mean” value in [1] (Month 12, Day 1 mean 16.73 ± 7.86) was determined as 13.51 ± 9.20. For the same molecule, the “subjects with improved ADAS-Cog11 scores” value in data set [1] (baseline to Month 12, 50 subjects) is 68%. The ADAS-Cog11 median change in [1] (baseline to Month 12, first 50 subjects) is −4.0 points.
“Sola: monoclonal antibody comparator (Expedition 1–3)”: in the data set on AD patients (Expedition 1+2 mild individuals), the “ADAS-Cog effect size, slowing” value is given as 34.8%. Moreover, in the data set on AD patients (Expedition 3), the “ADCS-ADL effect size, slowing” value is 15.4% and the “CDR-SB effect size, slowing” value is listed as 15.4%.
Regarding `CC(C)(C)NCC(O)COc1cccc2c1CC(O)C(O)C2` (centres unmarked) [nadolol], the “peripheral cardiovascular and metabolic effects of clenbuterol” value in the data set on patients with MCI or PD [2] (1mg nadolol 2.5 hours before clenbuterol) is recorded as “mostly eliminated”.
In the case of `NC(=O)c1ccc[n+]([C@@H]2O[C@H](CO)[C@@H](O)[C@H]2O)c1` [NR, Nicotinamide Riboside], the “CK/ATPase activity and GSH levels” value in the data set on healthy volunteers [3] (N=4) is “Only a small difference”. For the same molecule, the “brain NAD+ and redox ratio (RR)” value in the data set on healthy volunteers [3] (N=4, preliminary) is recorded as “elevations”.
`CN1CC[C@]2(C)c3cc(OC(=O)Nc4ccccc4)ccc3N(C)[C@H]12` [Posiphen]: in the data set with AD and PD patients (AD patients), the Aβ42/40 ratio result is on record as “improved”; the “axonal health as measured by NfL” value is listed as “improved axonal health”; the “sAPPα, sAPPβ, Tau, p-Tau” value is listed as “reduced”. The “ADAS-Cog 11” value in the data set on AD and PD patients (AD patients, 80 mg QD for 25 +/− 2 days, vs baseline) was “statistically significant improvements”. In addition, in the data set with AD and PD patients (AD patients, 80 mg QD, vs baseline), the WAIS coding result was “statistically significant improvements”. In addition, in the data set with AD and PD patients (PD patients), the “UPDRS, all 4 parts” value is “strong trends” and the WAIS coding test result is listed as “statistically significant improvements”. In the data set on AD and PD patients (treated patients, to baseline or to placebo), the inflammation entry was “statistically significantly lowered”.
In the case of `O=c1ccc2ccc(OCCCCN3CCN(c4cccc5sccc45)CC3)cc2[nH]1` [brexpiprazole], the “patients with CGI-S score of 1 or 2” value in data set [4] (2 mg/day, week 12, 140/237) worked out at 59.1%. Besides, in data set [4] (2 mg/day, week 12, 177/237), the “patients with improvement in CMAI of at least 10 points” value is 74.7%. For the same molecule, the “patients with improvement on CGI-S of at least 1 point” value in [4] (2 mg/day, week 12, 188/237) was 79.3%. In addition, the “difference vs placebo, CGI-S score of 1 or 2” value in [4] (week 12, p = 0.0033) worked out at 13.5%. The “difference vs placebo, CMAI improvement of at least 10 points” value in data set [4] (week 12, p = 0.0550) was determined as 8.0%. In addition, the “difference vs placebo, CGI-S improvement of at least 1 point” value in data set [4] (week 12, p=0.0048) amounted to 11.4%. Further, the “CMAI-IPA, adjusted mean difference vs placebo” value in data set [5] (Study 1, 2 mg/day (n=138) vs placebo (n=131), baseline to Week 12, MMRM) was −2.34; in [5] (Study 2, titrated to 2 mg/day (n=77) vs placebo (n=74), Week 12, MMRM), −2.79.
Consider `CC(C)COc1ccc(CNC(=O)N(Cc2ccc(F)cc2)C2CCN(C)CC2)cc1` [pimavanserin], for which the “sustained response at weeks 8 and 12” value in data set [6] (34 mg, open-label period, 36 of 49) was determined as 73.5%. For the same molecule, the “patients who met relapse criteria” value in [6] (at the time the study was stopped, n=16) stood at 1. In [6] (double-blind period), the “any TEAE” value was 31.3% and the “serious TEAEs” value is reported as “No patients”. The “risk of psychosis relapse, hazard ratio vs placebo” value in data set [6] (double-blind period, Cox regression, 95% CI 0.016, 0.166) came out at 0.052. Besides, in data set [6] (open-label period), the “any TEAE” value is recorded as 46.9%, the decreased appetite is recorded as 8.2%, the fall is reported as 6.1% and the insomnia is listed as 8.2%. In data set [6] (open-label period), the “serious TEAE” value stood at 10.2%, the somnolence came out at 8.2%, the urinary tract infection is 6.1% and the weight decreased is on record as 8.2%. Further, in data set [6] (open-label, baseline to week 12, SE 0.66), the “MMSE mean change from baseline” value was 0.3. For the same molecule, the “ESRS-A mean change from baseline” value in [6] (open-label, baseline to week 12, SE 0.74) is listed as −1.7. Also, the “complete response (SAPS-H+D score=0)” value in data set [6] (week 12, of 38 patients evaluated) worked out at 42.1%.
Consider `CN(C)c1ccc2c(c1)Sc1cc(N(C)C)ccc1N2.CS(=O)(=O)O.CS(=O)(=O)O` [LMTM, leuco-methylthionine dihydromesylate], for which the results for the “decline on ADAS-cog11 over 12 months” value in data set [7] (above-threshold plasma levels) and in [7] (below-threshold exposure) were 1.58±0.46 units and 4.74±0.60 units, respectively.
Turning to `CC(C)C[C@H]1C(=O)N2CCC[C@H]2[C@]2(O)O[C@](NC(=O)[C@@H]3C=C4c5cccc6[nH]c(Br)c(c56)C[C@H]4N(C)C3)(C(C)C)C(=O)N12` [bromocriptine], the “modification of Aβ production” value in the data set on PSEN1-AD neurons is given as “most potent modifier of Aβ production”.
On to `CC(C)(C)NCC(O)c1cc(Cl)c(N)c(Cl)c1` (centres unmarked) [clenbuterol], for which, in the data set with patients with MCI or PD [8] (setting [13]), the “increase in CBF, amygdala” value is listed as 14.3%; the “increase in CBF, hippocampus” value is given as 20.3%; the “increase in CBF, thalamus” value was found to be 13.1%. Also, in the data set on patients with MCI or PD [8] (setting [14]), the “Mean Relative Difference in perfusion, hippocampus” value is 13.7±5.9% and the “Mean Relative Difference in perfusion, thalamus” value was determined as 16.2±5.2%. Besides, in the data set on patients with MCI or PD [8] (setting [15]), the “Mean Relative Difference in perfusion, amygdala” value came to 8.1±11.5%; the “Mean Relative Difference in perfusion, hippocampus” value turned out to be 18.6±15.1%; the “Mean Relative Difference in perfusion, thalamus” value was found to be 21.0±10.8%. The “increase in heart rate, mean [SD]” value in the data set on patients with MCI or PD [2] (80µg single dose) is 12.9 [8.2] bpm. Also, in the data set on patients with MCI or PD [2] (setting [16]), the palpitations is 1/8 and the tremor is 4/8. For the same molecule, the safety and tolerability result in the data set on patients with MCI or PD [2] (single doses of 80µg) was “safe and well tolerated”.
For `COc1ccc2c(c1)c(CN1CCN(C)CC1)cn2S(=O)(=O)c1ccccc1Br` [masupirdine], the “NPI-12 psychosis score vs placebo” value in data set [9] (50 mg, Week 4 & 13, p<0.05, MMRM) was “significant reduction”; in data set [9] (100 mg, Week 26, p<0.1) it was “trend”. For the same molecule, in data set [10] (50 mg, end of 26 weeks), the “effect size (Cohen’s d), agitation/aggression” value turned out to be 0.66. The NPI-12 agitation/aggression scores result in data set [10] (50 & 100 mg arms, Week 13, MMRM) is on record as “statistically significant (p<0.01) reduction”.
Take `O=C([O-])[O-].[Li+].[Li+]` [lithium, lithium carbonate]: the “moderate or marked improvement (CGI)” value in data set [11] (12 weeks) is 36.8%. The proportion of responders in data set [11] (30% reduction in NPI agitation/aggression plus psychosis and CGI much or very much improved, 12 weeks) was found to be 31.6%. In addition, in data set [11] (95%CI 1.18 to 8.94), the “reduction vs placebo in patients with high Young Mania Rating Scale scores (β)” value is on record as 5.06. Also, the “improvement on NPI delusions and irritability/lability” value in [11] (exploratory analyses) is recorded as “greater than placebo”. In data set [11] (lithium carbonate 150–600 mg daily, 12 weeks, linear mixed effects model), the “change in NPI agitation/aggression” value is on record as “not significantly superior to placebo”. The safety outcomes in data set [11] (vs placebo) is “did not differ significantly from placebo”.
Turning to `CC(=O)Nc1nc(F)c(CN2CC[C@H](OCc3noc(C)n3)C[C@@H]2C)s1` [LY3372689], for the setting “3 mg QD, fed vs fasted”, the “food effect on AUC” value was “minimal effect”; the “food effect, decrease of Cmax” value is 43%; the “food effect, increase of tmax” value is 5 h. For the same molecule, the “exposure (AUC and Cmax) vs dose” value (SAD 0.15–16 mg and MAD 1, 3, 7 mg) is on record as “generally dose-proportional”. Moreover, the renal clearance entry (single or multiple dosing) is given as “not a major contributor”. Further, the maximum tolerated dose result in the data set with healthy volunteers [12] (SAD) is recorded as “not achieved”. In addition, the tolerability result with healthy volunteers [12] (up to the highest dose in each study) was “generally well tolerated”.

B1: AL001: human monoclonal IgG1 antibody that blocks and downregulates Sortilin (antibody, chains of the INN, looked up, V domains shown)
VH: QVQLQESGPGLVKPSETLSLTCAVSGYSISSGYYWGWIRQPPGKGLEWIGTIYHSGSTYYNPSLKSRVTISVDTSKNQFSLKLSSVTAADTAVYYCARQGSIKQGYYGMDVWGQGTTVTVSS
VL: DIVMTQSPLSLPVTPGEPASISCRSSQSLLRSTGYNYLDWYLQKPGQSPQLLIYLGSNRASGVPDRFSGSGSGTDFTLKISRAEAEDVGVYYCMQQQEAPLTFGGGTKVEIK
On to B1, for which the “CSF PGRN levels” value in the data set on GRN mutation carriers is on record as “normalize CSF PGRN levels”.
